From US8507498B2, “4, 6-disubstituted aminopyrimidine derivatives as inhibitors of protein kinases” (Ingenium Pharmaceuticals GmbH, priority 2007, dated 2013) come the findings set out here.

SMILES strings stand for the structures. “Also recorded” adds a separate entry of the source.

Series [1] addresses T1, CDK5/p35 (Homo sapiens, UniProt Q00535).
T1 construct: purchased Upstate
Description: General kinase assay (Example 80). The class given is biochemical. Particulars: ATP 1 μM. The protocol:
(§1) Kinase assays determining CDK2/CyclinA and CDK5/p35 activity were performed as described by the manufacturer's recommendations (ProQinase (Freiburg, Germany) for CDK2/CyclinA and Upstate for CDK5/p35).
(§2) The inhibitory effect of compounds according to the present invention on the activity of protein kinases can be measured according to the following protocol: • Reaction Volume: 40 μl • Reaction Time: 60 min • Reaction Temperature: room temperature • Assay Plate: 96 well U bottom plate (Greiner, 650161) • MultiScreen-PH Plate: 96 well MAPH Filter Plates (Millipore, MAPHNOB50) • Filter Washing Solution: 0.75% H3PO4 • Scintillation Liquid Supermix Liquid Scintillator (PerkinElmer, 1200-439) Controls: • Negative Control (C−): 100 mM EDTA (Ethylenediaminetetraacetic acid), no Inhibitor • Positive Control (C+): no Inhibitor Reaction Buffer: • 20 mM Tris (Tris(hydroxymethyl)aminomethane hydrochloride), pH 7.5 • 10 mM MgCl2 • 1 mM DTT Final Assay Concentrations: • Kinase: Use kinase conc. yielding 10% ATP turn over. • ATP: 1 μM • Adenosine 5′-[-^33P]triphosphate:12.5 μCi/ml (Amersham Biosciences, BF1000) • Substrate: Myelin Basic Protein 10 μM (Invitrogen, 13228-010) Pipetting Sequence: • 1) Add 10 μl 4 fold concentrated Substrate+4 fold concentrated ATP in […] concentrated Reaction Buffer to each well of Assay Plate • 2) Add 10 μl 4 fold concentrated inhibitor in 4% DMSO in H2O to each well except to C− and C+wells • 3) Add 10 μl 4% DMSO in H2O to C− and C+wells • 4) Add 10 μl 500 mM EDTA in H2O to C− wells • 5) Add 10 μl 50 μCi/ml Adenosine 5′-[-^33P]triphosphate in H2O to each well • 6) Add 10 μl 4 fold concentrated kinase in Reaction Buffer to each well • 7) Incubate 1 hr at room temperature • 8) Add 10 μl 50 mM EDTA in H2O to each well except to C− wells • 9) Prepare MAPH plates by adding 200 μl 0.75% H3PO4 to each well • 10) Exhaust 0.75% H3PO4 using Millipore vacuum station • 11) Add 60 μl 0.75% H3PO4 to each well of MAPH Filter Plate • 12) Transfer 30 μl sample per well from Assay Plate to corresponding well of MAPH Filter Plate • 13) Incubate 30 min at room temperature • 14) Wash each well of MAPH Filter Plates 3× with 200 μl 0.75% H3PO4 using Millipore vacuum station. • 15) Add 20 μl Scintillation Liquid to each well of MAPH Filter Plate • 16) Seal MAPH Filter Plate • 17) Store MAPH Filter Plate 30 min in darkness • 18) Quantify radioactivity Results:
(§3) IC50s were calculated for each kinase based on serial dilutions.

The target in series [2] is T2, CDK2/CycA (Homo sapiens, UniProt P24941).
T2 construct: purchased ProQinase (Freiburg, Germany)
The series can be described thus: General kinase assay (Example 80). The class given is biochemical. Particulars: ATP 1 μM. The procedure: as §1, §2, §3

The target in series [3] is T3, CDK9/CycT1 (Homo sapiens, UniProt P50750).
T3 construct: made in house; host or cells: HEK293 cells (ATCC CRL-1573), recombinant adenovirus
T3 sequence (P50750 whole entry, species assumed): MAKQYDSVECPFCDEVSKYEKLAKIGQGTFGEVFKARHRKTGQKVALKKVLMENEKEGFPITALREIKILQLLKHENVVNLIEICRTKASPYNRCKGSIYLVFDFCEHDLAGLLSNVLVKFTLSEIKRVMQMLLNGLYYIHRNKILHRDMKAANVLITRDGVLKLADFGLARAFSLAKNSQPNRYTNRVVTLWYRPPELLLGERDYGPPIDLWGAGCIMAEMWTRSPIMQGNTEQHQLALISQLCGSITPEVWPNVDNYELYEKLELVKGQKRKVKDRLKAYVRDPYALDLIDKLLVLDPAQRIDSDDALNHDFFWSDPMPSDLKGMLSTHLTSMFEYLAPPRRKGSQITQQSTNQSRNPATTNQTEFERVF
T3 sequence (O60563 whole entry partner, species assumed): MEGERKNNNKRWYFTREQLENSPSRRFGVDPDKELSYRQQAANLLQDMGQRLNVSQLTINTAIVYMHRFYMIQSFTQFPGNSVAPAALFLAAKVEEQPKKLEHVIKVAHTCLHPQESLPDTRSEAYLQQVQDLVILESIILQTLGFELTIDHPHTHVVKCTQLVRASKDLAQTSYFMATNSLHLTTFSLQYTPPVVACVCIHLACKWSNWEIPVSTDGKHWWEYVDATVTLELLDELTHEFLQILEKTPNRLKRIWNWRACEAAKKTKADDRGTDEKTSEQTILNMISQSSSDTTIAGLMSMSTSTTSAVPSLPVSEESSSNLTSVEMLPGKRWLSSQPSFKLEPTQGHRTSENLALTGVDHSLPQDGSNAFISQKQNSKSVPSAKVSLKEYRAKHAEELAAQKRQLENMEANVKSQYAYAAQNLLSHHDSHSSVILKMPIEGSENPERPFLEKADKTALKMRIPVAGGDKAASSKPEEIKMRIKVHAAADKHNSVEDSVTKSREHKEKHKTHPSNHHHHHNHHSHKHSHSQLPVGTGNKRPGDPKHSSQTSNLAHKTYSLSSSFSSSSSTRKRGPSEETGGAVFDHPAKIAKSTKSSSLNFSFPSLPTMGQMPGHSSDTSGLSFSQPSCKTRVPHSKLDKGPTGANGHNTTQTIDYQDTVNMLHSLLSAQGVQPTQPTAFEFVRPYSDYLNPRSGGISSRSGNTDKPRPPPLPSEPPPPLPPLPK
Description: General kinase assay (Example 80). Format: biochemical. Particulars: ATP 1 μM.
From the text: Both cDNA fragments were cloned by PCR into pDONR201 vectors using the gateway recombination system (Invitrogen) according to the manufacturer's recommendations. The fragments were subcloned into a gateway-adapted shuttle vector (pPM7) for production of recombinant adenovirus. All plasmids were verified by restriction digests and sequencing analysis.
Expression and purification of CDK9/Cyclin T1 proteins was in principle performed as described by Cotten et al. (M. Cotten et al., Nucleic acids research, 2003, 31(28), 128).
Kinase assays using CDK9/Cyclin T1 were performed in principle as described by Cotten et al. (M. Cotten et al., Nucleic acids research, 2003, 31(28), 128).
as §3

Series [4] concerns HepG2. Description: Growth assay using Alamar Blue. Format: cell-based. Conditions: Homo sapiens, read-out: IC50 against cell line HepG2. The procedure:
(§4) Cells were seeded in 384-well plates (white, Greiner: 781080) at a density of […] cells per well in medium (RPMI+10% FCS).
(§5) Cells were incubated in 25 μl medium/well and were grown over night at 37° C., 6% CO2. On the following day compounds were added in DMSO in serial fold dilutions in fresh medium. Negative control wells were incubated without cells. Positive control wells were incubated with cells but without inhibitors (DMSO only). These wells served as data points to determine relative growth (given in % of the DMSO control [=100%]). The cell number was determined by addition of 5 μL Alamar Blue™ (Biosource DAL1100) to each well. Fluorescence was measures with an Analyst GT machine (Molecular Devices) at an excitation wavelength of 560 nm and an emission wavelength of 590 nm.
(§6) The following cell lines were used: A2780 (ECACC order number 93112519; human ovarian carcinoma; Semin Oncol (1984) 11:285; Cancer Res (1987) 47:414), B16F1 (ATCC order number CRL-6323; melanoma; Nat. New Biol. 242: 148-149, 1973); HCT116 (ATCC order number CCL-247; Colorectal carcinoma; Cancer Res (1981) 41:1751; Cancer (1995) 76:201), HT29 (ATTC order number HTB-38; colorectal adenocarcinoma; J. Biol. Chem. 271: 9490-9496, 1996) HepG2 (ATCC order number HB-8065; hepatocellular carcinoma; J. Biol. Chem. 271: 10073-10078, 1996), J774 (ATCC order number TIB-67; reticulum cell sarcoma; J. Biol. Chem. 271: 18431-18436, 1996); MCF7 (ATCC order number HTB-22; Breast carcinoma; J Natl Cancer Inst (1973) 51:1409; Cancer Res (1993) 53:5193), PM1 (obtainable from the National Institute of Allergy and Infectious Diseases; Division of AIDS via the NIH AIDS Research & Reference Reagent Program; Lusso P et al (1995), J Virol 69: 3712-3720) and U373-MAGI-CCR5 (obtainable from the National Institute of Allergy and Infectious Diseases; Division of AIDS via the NIH AIDS Research & Reference Reagent Program; Kensinger R D et al (2004), Antimicrob Agents Chemother 48: 1614-1623).
(§7) IC50s were calculated for each cell line based on serial dilutions.

Series [5] deals with HCT116. Description: Growth assay using Alamar Blue. The class given is cell-based. Conditions: Homo sapiens, HCT-116, read-out: IC50 against cell line HCT116. The protocol: as §4, §5, §6, §7
Series [6] has as its system PM1. The series can be described thus: Growth assay using Alamar Blue. Format: cell-based. Particulars: read-out: IC50 against cell line PM1. The procedure:
as §4, §5, §6, §7

Series [7] has as its target CDK1/CycB (Homo sapiens, UniProt P06493). The series can be described thus: General kinase assay (Example 80). Format: biochemical. Particulars: ATP 1 μM. The procedure: as §2, §3
The target of series [8] is CDK6/CycD3 (Homo sapiens, UniProt Q00534). Description: General kinase assay (Example 80). Format: biochemical. Particulars: ATP 1 μM. The protocol:
as §2, §3

For series [9], the target named is CDK4/CycD1 (Homo sapiens, UniProt P11802). Description: General kinase assay (Example 80). Conditions: ATP 1 μM. The class given is biochemical. The protocol:
as §2, §3

Series [10] relates to U373-MAGI-CCR5E. The series can be described thus: Growth assay using Alamar Blue. Conditions: read-out: IC50 against cell line U373-MAGI-CCR5E. The class given is cell-based. The protocol: as §4, §5, §6, §7
Series [11] deals with SNI mice (mechanical allodynia). Description: Spared nerve injury (SNI) model, von Frey assay. Conditions: 30 mg/kg per os 30 min prior to measurement, day 107 post SNI, vs vehicle. The class given is in vivo. The procedure: Wildtype mice (strain C3HeB/FeJ) (age, sex and weight matched) were anesthetized with Hypnorm (0.315 mg/ml fentanyl citrate+10 mg/ml fluanisone; Janssen)/Hypnovel (5 mg/ml midazolam; Roche Applied Sciences)/water at a ratio of 1:1:2 at 4 μl/g prior to surgical preparation.
Subsequently, an incision was made under aseptic precautions in the ipsi-lateral right hind leg of all mice just above the level of the knee, exposing the three terminal branches of the sciatic nerve: the common peroneal, tibial, and sural nerves. The common peroneal and tibial nerves were ligated tightly with 7/0 silk and sectioned distal to the ligation removing ≈2 mm of distal nerve stump. The sural branch remained untouched during the procedure (denoted herein “SNI ipsi”). The overlying muscle and skin was sutured, and the animals were allowed to recover and to permit wound healing. […]
Injection of inhibitor or vehicle, and subsequent measurements of paw withdrawal threshold to mechanical stimulation in von Frey assays were performed at day 107 post SNI. Reflex nociceptive responses to mechanical stimulation were measured in a von Frey assay 30 min after each injection. […]
Mechanical thresholds of SNI mice were quantified using the up-down method based on Chaplan et al. (1994) and Malmberg and Basbaum (1998). […]

T1 sequence (Q00535 whole entry): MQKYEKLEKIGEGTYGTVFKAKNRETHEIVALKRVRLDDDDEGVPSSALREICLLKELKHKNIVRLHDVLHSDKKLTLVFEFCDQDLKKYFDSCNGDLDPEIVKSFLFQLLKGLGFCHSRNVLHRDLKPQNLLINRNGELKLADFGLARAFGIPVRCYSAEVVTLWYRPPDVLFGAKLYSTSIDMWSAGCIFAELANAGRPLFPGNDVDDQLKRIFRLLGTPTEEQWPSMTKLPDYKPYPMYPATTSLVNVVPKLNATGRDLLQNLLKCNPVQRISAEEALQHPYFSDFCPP
T1 sequence (Q15078 whole entry partner): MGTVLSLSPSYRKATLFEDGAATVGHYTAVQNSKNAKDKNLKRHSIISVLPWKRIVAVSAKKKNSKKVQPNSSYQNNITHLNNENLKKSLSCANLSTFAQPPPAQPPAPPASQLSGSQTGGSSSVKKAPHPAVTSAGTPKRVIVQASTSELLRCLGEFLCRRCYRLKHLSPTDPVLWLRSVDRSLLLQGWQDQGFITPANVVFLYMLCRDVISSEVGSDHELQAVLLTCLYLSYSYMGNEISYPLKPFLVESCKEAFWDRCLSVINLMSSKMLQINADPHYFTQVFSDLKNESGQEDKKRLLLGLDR
Chain of CDK1/CycB (P06493 whole entry, species assumed): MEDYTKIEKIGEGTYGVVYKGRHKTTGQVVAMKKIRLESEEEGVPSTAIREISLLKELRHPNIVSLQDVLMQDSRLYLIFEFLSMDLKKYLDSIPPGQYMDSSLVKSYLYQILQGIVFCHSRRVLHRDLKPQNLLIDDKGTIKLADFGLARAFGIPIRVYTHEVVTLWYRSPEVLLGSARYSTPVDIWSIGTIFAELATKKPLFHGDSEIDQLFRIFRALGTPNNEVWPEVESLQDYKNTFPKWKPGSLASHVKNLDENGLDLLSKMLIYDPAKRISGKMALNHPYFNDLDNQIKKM
Chain of CDK1/CycB (P14635 whole entry partner, species assumed): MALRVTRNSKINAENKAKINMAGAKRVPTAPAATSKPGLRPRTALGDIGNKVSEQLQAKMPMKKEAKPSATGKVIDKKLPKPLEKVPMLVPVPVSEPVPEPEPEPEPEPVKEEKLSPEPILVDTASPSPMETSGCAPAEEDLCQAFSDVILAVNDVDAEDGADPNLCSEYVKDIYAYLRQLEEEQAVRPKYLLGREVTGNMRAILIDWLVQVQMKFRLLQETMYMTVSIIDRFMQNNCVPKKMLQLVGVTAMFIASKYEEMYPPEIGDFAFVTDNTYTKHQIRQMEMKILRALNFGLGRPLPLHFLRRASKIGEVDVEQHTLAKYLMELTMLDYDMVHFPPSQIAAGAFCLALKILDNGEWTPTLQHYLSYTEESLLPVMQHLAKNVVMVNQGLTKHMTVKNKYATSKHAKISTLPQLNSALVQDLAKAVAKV
Chain of CDK4/CycD1 (P11802 whole entry, species assumed): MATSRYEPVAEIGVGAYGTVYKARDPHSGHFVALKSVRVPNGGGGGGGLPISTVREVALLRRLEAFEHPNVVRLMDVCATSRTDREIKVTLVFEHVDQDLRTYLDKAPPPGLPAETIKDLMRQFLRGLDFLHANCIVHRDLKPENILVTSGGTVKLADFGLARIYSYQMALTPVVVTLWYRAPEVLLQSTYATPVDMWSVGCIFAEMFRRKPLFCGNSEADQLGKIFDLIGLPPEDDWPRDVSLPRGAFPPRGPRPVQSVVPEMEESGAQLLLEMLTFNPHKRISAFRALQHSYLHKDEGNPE
Chain of CDK4/CycD1 (P24385 whole entry partner, species assumed): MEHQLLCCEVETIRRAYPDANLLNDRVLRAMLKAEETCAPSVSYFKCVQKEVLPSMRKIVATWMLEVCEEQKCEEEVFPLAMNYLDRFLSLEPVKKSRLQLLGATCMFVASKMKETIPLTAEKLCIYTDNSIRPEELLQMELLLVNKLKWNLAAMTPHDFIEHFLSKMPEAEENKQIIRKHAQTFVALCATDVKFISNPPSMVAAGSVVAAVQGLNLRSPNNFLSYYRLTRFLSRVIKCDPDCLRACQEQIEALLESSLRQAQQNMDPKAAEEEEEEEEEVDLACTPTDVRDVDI
Chain of CDK6/CycD3 (Q00534 whole entry, species assumed): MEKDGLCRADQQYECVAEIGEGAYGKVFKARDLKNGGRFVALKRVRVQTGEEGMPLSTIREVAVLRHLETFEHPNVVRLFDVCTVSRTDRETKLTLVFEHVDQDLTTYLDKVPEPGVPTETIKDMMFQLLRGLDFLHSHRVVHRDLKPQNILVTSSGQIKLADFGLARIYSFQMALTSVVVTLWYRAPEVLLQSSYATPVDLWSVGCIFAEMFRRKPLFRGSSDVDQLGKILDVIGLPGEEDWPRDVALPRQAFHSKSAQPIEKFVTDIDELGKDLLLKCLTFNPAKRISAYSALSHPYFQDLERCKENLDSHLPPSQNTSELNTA
Chain of CDK6/CycD3 (P30281 whole entry partner, species assumed): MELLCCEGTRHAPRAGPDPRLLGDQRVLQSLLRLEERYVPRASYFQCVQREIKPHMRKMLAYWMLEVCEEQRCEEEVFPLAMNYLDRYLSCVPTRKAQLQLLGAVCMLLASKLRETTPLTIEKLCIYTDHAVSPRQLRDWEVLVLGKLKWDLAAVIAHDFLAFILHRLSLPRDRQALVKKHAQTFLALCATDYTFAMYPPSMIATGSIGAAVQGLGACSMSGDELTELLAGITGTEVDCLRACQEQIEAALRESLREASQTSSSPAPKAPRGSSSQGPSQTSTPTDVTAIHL

Consider `CNS(=O)(=O)Cc1cccc(Nc2cc(-c3ccccc3OC)ncn2)c1` [Compound 49, C-{3-[6-(2-methoxy-phenyl)-pyrimidin-4-ylamino]-phenyl}-N-methyl-methanesulfonamide], for which the IC50 in [1] is less than 5 µM; in series [2], less than 2 µM; in series [3] it was less than 0.1 µM; in series [4] it was greater than 10 µM; in series [5] it was less than 2 µM; in series [6], less than 5 µM. For the same molecule, the half-maximal inhibitory concentration (IC50) is less than 5 µM in [7], less than 10 µM in series [8] and less than 10 µM in series [9].
In turn, `COc1ccccc1-c1cc(Nc2cccc(CS(=O)(=O)N(C)C)c2)ncn1` [Compound 20, C-{3-[6-(2-methoxy-phenyl)-pyrimidin-4-ylamino]-phenyl}-N,N-dimethyl-methanesulfonamide] yielded a melting point of 187.5 to 188.8 °C. Moreover, in [1], the concentration for half-maximal inhibition (IC50) was less than 5 µM. In series [2], this molecule registered an IC50 of less than 2 µM. Besides, the IC50 in [3] is less than 0.5 µM. In addition, the IC50 in [10] was less than 10 µM. Further, the IC50 in series [5] is less than 5 µM. Also, the half-maximal inhibitory concentration (IC50) in [7] is less than 5 µM.
In the case of `CCOc1ccccc1-c1cc(Nc2cccc(CS(=O)(=O)NC)c2)ncn1` [Compound 43, C-{3-[6-(2-Ethoxy-phenyl)-pyrimidin-4-ylamino]-phenyl}-N-methyl-methanesulfonamide], the “paw withdrawal threshold to mechanical stimulation (von Frey), mechanical allodynia” value in series [11] is reported as “hypoalgesic effect; also recorded: significant increase of threshold values”.
`COCCNS(=O)(=O)Cc1cccc(Nc2cc(-c3ccccc3OC)ncn2)c1` [Compound 86, N-(2-methoxy-ethyl)-C-{3-[6-(2-methoxy-phenyl)-pyrimidin-4-ylamino]-phenyl}-methanesulfonamide]: the IC50 is less than 10 µM in series [1]; less than 10 µM in [2]; less than 0.5 µM in series [3]; less than 5 µM in series [5]; less than 10 µM in [7]; greater than 10 µM in [9].
